The source made the active and inactive calls.
Columns and labels:
[1] = Luminescence Cell-Based Dose Confirmation HTS to Identify Activators of 5'UTR Stem-Loop Driven Alpha-Synuclein mRNA Translation in H4 Neuroglioblastoma Cells. [Related pubchem assays: 1829 (Project Summary), 1814 (Primary HTS)]; format: functional
[2] = Luminescence Cell-Based Dose Response HTS to Identify Activators of Luciferase Translation or Activity in H4 […] Cells. [Related pubchem assays: 1829 (Project Summary), 1814 (Primary HTS)]; format: functional
[3] = tested on: H4; assay: Luminescence Cell-Based Dose Response HTS to Identify Activators of 5'UTR Stem-Loop Driven Prion Protein mRNA Translation in H4 Neuroglioblastoma Cells. [Related pubchem assays: 1829 (Project Summary), 1814 (Primary HTS)]; format: functional; details: Homo sapiens
[4] = molecular target: T1, Ubiquitin-conjugating enzyme E2 N (Homo sapiens, UniProt P61088); format: functional;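 also: Dose-response confirmation in a TR-FRET assay detecting UBC13-driven polyubiquitin chain formation, inhibition measured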
T1 sequence (P61088 whole entry): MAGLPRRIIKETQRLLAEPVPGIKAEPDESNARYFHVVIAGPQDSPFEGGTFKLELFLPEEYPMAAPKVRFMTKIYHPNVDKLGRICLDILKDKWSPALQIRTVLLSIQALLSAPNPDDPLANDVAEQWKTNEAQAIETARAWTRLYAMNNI

[5] = molecular target: Large T antigen (Simian virus 40, UniProt P03070); format: functional, Betapolyomavirus macacae;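 also: Confirmatory-stage PubChem screen for compounds that inhibit SV40 T antigen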
[6] = molecular target: Cytochrome P450 2C19 (Homo sapiens, UniProt P33261); assay: Cytochrome panel assay with activity outcomes. Panel member name: p450-cyp2c19 Compounds with AC50 equal or less than 10 uM are considered active; format: functional
[7] = molecular target: T2, Cytochrome P450 1A2 (Homo sapiens, UniProt P05177);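 also: PubChem cytochrome P450 panel assay, CYP1A2 panel member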
T2 sequence (P05177 whole entry): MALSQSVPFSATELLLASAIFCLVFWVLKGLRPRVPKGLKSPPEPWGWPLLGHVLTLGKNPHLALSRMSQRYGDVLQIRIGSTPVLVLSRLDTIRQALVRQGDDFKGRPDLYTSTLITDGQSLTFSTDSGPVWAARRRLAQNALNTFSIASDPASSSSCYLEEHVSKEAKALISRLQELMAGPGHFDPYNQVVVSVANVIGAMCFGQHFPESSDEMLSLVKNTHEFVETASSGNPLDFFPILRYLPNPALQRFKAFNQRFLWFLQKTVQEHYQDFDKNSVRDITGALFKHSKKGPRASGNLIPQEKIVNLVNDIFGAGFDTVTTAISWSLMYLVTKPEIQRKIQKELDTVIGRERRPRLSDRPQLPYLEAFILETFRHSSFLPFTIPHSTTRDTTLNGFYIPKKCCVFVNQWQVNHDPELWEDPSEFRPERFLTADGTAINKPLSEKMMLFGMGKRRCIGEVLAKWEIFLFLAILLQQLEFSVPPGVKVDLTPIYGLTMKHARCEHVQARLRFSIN

[8] = molecular target: Cytochrome P450 2C9 (Homo sapiens, UniProt P11712)
[9] = molecular target: Luciferin 4-monooxygenase (Photinus pyralis, UniProt P08659); assay: inhibition of purified Photinus pyralis luciferase – biochemical, luminescence, dose response (AID 1891)
[10] = Luminescence Cell-Based Dose Confirmation HTS to Identify Inhibitors of Platelet Dense Granule Release. [Related pubchem assays: 1663 (Primary HTS), 1678 (Summary of Project)]; format: functional
[11] = molecular target: T3, RNA-binding protein pos-1 (Caenorhabditis elegans, UniProt G5EF15); assay: disruptors of C. elegans POS-1 RNA interaction – biochemical, fluorescence polarization, dose response (AID 1964);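 also: purified POS-1 fused to maltose binding protein made in E. coli; potency of compounds blocking POS-1 binding to fluorescent RNA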
T3 sequence (G5EF15 whole entry): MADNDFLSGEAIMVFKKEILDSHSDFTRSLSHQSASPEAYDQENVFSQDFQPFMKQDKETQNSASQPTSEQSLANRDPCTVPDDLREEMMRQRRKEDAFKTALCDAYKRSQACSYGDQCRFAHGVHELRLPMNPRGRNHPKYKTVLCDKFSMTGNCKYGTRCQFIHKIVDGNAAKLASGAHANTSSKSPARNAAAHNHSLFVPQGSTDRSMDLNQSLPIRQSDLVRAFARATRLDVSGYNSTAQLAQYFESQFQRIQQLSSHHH

[12] = molecular target: T4, Zinc finger protein mex-5 (Caenorhabditis elegans, UniProt Q9XUB2); assay: potency of MEX-5 RNA-binding blockers – biochemical, C. elegans, fluorescence polarization, dose response (AID 1960)
T4 sequence (Q9XUB2 whole entry): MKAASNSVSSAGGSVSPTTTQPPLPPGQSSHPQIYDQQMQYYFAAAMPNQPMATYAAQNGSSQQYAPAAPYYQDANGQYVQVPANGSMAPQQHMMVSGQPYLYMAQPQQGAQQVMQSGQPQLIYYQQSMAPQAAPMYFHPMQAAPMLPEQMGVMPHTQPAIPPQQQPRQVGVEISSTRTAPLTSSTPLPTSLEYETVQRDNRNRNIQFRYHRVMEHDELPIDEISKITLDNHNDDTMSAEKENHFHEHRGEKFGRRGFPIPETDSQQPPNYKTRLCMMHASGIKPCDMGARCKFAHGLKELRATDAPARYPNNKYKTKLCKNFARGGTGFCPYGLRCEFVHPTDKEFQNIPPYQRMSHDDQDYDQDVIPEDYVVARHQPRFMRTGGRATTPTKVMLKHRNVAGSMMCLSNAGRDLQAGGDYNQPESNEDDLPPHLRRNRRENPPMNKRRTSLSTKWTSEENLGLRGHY

[13] = molecular target: Cytochrome P450 3A4 (Homo sapiens, UniProt P08684);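 also: CYP3A4 tested as one member of a cytochrome P450 panel screen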
[14] = Trypanosoma cruzi growth suppression in host cells – NIH3T3 host cells, beta-gal luminescence, confirmation (AID 2044); format: functional, cell-based;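 also: intracellular parasites grown in NIH/3T3 mouse fibroblasts as host cells; luminescent beta-galactosidase reporter signal from transgenic T. cruzi replicating inside host cells; inhibitors lower the luminescence signal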
[15] = NIH3T3 cell viability loss – ATP luminescence, mouse fibroblasts, counter-screen, dose response (AID 2010); format: functional, cell-based;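 also: cells exposed to compound for about 90 hours before reading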
[16] = viability of PTEN-deleted HCT116 cells – cell-based, HCT116 PTEN knockout, dose response (AID 1047); format: functional;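 also: HCT116 colon tumor cells with PTEN knocked out; cells exposed to compound for 60 hours before readout; potency for loss of cell viability measured by luminescence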
[17] = viability of HCT116 lacking mutant beta-catenin – cell-based, human colon tumor, dose response (AID 1045); format: functional;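 also: HCT116 colon tumor cells with beta catenin knocked out; cells exposed to compound for 60 hours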
[18] = Luminescence Cell-Based Dose Retest to Confirm Inhibitors of Cancer Stem Cells. [Related pubchem assays (depositor defined):AID2717, AID2721]; format: functional; details: Homo sapiens

Sequence of Cytochrome P450 2C9 (P11712 whole entry): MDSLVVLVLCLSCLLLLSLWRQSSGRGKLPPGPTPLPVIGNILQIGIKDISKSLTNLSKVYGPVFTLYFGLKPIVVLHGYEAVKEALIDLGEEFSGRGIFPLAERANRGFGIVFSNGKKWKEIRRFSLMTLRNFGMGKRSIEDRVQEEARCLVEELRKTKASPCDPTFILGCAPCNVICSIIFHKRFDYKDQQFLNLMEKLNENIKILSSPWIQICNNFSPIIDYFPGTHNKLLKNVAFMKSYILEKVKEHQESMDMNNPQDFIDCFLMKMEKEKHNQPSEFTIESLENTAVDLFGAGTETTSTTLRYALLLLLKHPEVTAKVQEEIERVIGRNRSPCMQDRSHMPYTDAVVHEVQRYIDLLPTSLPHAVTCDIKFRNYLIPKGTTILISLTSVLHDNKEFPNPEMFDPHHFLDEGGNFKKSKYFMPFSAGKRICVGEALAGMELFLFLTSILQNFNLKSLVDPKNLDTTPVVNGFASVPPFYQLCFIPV
Sequence of Large T antigen (P03070 whole entry): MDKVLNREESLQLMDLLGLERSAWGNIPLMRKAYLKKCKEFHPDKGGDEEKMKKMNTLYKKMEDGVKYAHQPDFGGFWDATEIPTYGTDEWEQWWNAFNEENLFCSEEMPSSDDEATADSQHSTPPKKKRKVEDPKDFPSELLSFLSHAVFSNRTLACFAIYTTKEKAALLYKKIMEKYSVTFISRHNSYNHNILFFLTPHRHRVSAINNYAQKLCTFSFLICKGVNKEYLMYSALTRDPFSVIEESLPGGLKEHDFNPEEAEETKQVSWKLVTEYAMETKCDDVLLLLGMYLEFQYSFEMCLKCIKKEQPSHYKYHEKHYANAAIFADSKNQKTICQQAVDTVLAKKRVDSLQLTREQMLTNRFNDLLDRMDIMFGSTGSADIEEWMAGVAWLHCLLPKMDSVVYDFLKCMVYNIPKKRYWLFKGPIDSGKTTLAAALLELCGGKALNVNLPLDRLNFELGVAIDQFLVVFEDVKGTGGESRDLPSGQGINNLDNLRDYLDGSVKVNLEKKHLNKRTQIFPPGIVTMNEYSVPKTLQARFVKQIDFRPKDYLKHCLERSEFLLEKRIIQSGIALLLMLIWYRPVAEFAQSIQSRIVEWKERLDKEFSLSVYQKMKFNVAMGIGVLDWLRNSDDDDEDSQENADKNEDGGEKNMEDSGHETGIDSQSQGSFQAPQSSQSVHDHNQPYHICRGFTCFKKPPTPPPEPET
Sequence of Cytochrome P450 2C19 (P33261 whole entry): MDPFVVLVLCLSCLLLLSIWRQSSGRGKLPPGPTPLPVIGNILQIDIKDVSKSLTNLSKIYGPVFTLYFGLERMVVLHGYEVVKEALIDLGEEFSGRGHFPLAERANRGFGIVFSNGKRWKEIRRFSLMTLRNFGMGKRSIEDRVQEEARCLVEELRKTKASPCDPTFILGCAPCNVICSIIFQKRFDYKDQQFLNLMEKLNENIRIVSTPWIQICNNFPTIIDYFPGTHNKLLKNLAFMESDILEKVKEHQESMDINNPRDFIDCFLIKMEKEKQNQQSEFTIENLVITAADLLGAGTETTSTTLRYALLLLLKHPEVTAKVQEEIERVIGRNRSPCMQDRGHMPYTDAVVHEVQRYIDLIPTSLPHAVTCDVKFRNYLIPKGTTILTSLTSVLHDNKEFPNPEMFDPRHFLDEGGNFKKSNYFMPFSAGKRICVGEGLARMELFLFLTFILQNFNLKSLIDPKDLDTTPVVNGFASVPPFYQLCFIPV
Sequence of Cytochrome P450 3A4 (P08684 whole entry): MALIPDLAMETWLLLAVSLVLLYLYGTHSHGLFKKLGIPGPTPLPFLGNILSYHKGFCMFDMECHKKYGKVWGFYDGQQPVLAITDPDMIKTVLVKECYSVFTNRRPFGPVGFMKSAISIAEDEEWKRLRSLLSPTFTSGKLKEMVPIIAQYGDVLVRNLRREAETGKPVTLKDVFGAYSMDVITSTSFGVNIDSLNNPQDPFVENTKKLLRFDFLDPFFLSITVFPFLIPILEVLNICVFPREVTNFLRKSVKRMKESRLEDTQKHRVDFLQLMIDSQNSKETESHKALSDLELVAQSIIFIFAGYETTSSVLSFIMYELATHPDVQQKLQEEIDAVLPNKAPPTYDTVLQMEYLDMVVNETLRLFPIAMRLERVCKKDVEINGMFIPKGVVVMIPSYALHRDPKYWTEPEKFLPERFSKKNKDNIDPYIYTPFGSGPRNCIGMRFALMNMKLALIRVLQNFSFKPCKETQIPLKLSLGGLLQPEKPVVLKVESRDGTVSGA
Sequence of Luciferin 4-monooxygenase (P08659 whole entry): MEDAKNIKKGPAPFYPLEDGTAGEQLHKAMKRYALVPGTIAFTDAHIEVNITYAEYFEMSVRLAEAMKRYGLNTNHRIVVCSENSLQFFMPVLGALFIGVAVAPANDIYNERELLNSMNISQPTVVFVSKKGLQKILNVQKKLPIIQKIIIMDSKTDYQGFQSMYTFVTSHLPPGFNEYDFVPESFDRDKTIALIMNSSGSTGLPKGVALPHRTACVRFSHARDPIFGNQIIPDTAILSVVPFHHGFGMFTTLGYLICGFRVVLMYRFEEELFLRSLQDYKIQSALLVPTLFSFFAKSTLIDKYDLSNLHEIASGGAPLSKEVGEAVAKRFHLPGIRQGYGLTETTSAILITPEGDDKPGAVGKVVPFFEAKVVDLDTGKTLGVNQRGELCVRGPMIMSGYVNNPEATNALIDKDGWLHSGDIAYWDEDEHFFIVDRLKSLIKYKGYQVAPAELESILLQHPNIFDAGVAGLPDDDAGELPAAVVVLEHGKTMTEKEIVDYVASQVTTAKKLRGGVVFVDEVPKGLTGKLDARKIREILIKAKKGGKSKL

For `COc1cccc(-n2cnc3sc(-c4ccccc4)cc3c2=O)c1`, the EC50 [1] was 0.185 µM (active), the EC50 [2] was 0.124 µM (active) and the EC50 [3] was 0.136 µM (active).
With `CCN(CC)S(=O)(=O)c1ccc(C(=O)NNC(=O)C2CCN(S(=O)(=O)c3ccc(Cl)cc3)CC2)cc1` the IC50 [4] was > 20 µM (inactive).
In the case of `COc1ccc(N2CCC(CN=C(S)Nc3ccc(C)cc3C)C2)cc1` (stereo not given), the IC50 [5] is reported as 11 µM (active).
With `COc1ccc(C(=O)Nn2cnc3ccccc3c2=O)c(OC)c1` the AC50 ([6]; read-out: AC50) was 17.8 µM (inconclusive), the AC50 [7] was 11.2 µM (inconclusive) and the AC50 [8] was “inconclusive”.
For `Cc1ccc(C(=O)C2CCN(CC(=O)Nc3ccc4c(c3)OCCO4)CC2)cc1`, the EC50 [9] was > 112 µM (not active) and the EC50 [10] was > 112 µM (not active).
For `Cc1ccc2nc(N3CCN(C(=O)c4ccco4)CC3)sc2c1`, the EC50 [1] was 5.76 µM (active), the EC50 [2] was > 120 µM (not active) and the EC50 [3] was 34.9 µM (active).
In the case of `COc1ccc(-c2nc3cnc(N4CCOCC4)nc3n(C[C@H]3CCCO3)c2=O)cc1`, the AC50 [7] is reported as 5.01 µM (inconclusive) and the AC50 [8] is reported as “inconclusive”.
In the case of `O=C(NCCCN1CCOCC1)C1Nc2ccc(OC(F)(F)F)cc2C2C=CCC12` (stereo not given), the EC50 [11] is reported as > 300 µM (not active) and the EC50 [12] is reported as > 300 µM (not active).
In the case of `CC(=O)C1=C(C)NC(SCC(=O)c2ccccc2)=C(C#N)C1c1ccco1` (stereo not given), the EC50 [1] is reported as 11 µM (active), the EC50 [2] is reported as 26.5 µM (active) and the EC50 [3] is reported as 19.5 µM (active).
For `CCC12CN3CC(CC)(CN(C1)C3c1cccnc1)C2=O` (stereo not given), the AC50 [7] was 28.2 µM (inconclusive), the AC50 [13] was 4.47 µM (inconclusive) and the AC50 [8] was “inconclusive”.
With `COc1ncc2nc(-c3cn(C)c4ccccc34)c(=O)n(-c3ccccc3)c2n1` the AC50 [7] was 5.01 µM (inconclusive), the AC50 [13] was 3.16 µM (inconclusive) and the AC50 [8] was “inconclusive”.
In the case of `COc1cc2[nH]c3c(N4CCN(c5ccc(Cl)cc5)CC4)ncnc3c2cc1OC`, the IC50 [4] is reported as > 20 µM (inactive).
In the case of `Cc1nc(NC(=O)c2ccccc2)sc1-c1csc(Nc2ccc(Cl)cc2)n1`, the AC50 [7] is reported as 7.08 µM (inconclusive) and the AC50 [8] is reported as “inconclusive”.
For `Cc1ccc(C(=O)NC(=S)Nc2cc(C(F)(F)F)ccc2Cl)cc1`, the AC50 [6] was “inconclusive”, the AC50 [7] was 0.562 µM (inconclusive) and the AC50 [8] was “inconclusive”.
With `CCn1c(=O)c(C(=O)NCCN2CCCCC2)c(O)c2ccccc21` the IC50 [4] was > 20 µM (inactive).
For `O=C(N/N=C/C(Br)=C/c1ccccc1)C1CC1`, the EC50 [1] was 18.7 µM (active), the EC50 [2] was 60.3 µM (active) and the EC50 [3] was 15.8 µM (active).
In the case of `CCC(=O)N1CCc2nc(-c3ccccc3)sc2C1`, the EC50 [1] is reported as 7.33 µM (active), the EC50 [2] is reported as 20.4 µM (active) and the EC50 [3] is reported as 46.3 µM (active).
For `CCn1cc(NC(=O)Nc2ccccc2C(=O)OC)c(C(N)=O)n1`, the EC50 [9] was > 112 µM (not active) and the EC50 [10] was > 112 µM (not active).
For `NS(=O)(=O)c1cc(Br)c(/N=N\c2ccc(O)c3ncccc23)c(Br)c1`, the AC50 [7] was 1.26 µM (inconclusive) and the AC50 [8] was “inconclusive”.
In the case of `O=C(NC1CCCC1)c1csc2c1CCCC2`, the EC50 [9] is reported as > 112 µM (not active) and the EC50 [10] is reported as > 112 µM (not active).
With `CN(C)c1nn(C(=O)Nc2ccc(Cl)cc2Cl)cc1-c1ccccc1` the IC50 [5] was 38 µM (active).
In the case of `CC1CN=C(Nc2ccc(N(C)C)cc2)S1` (stereo not given), the IC50 [5] is reported as 9.27 µM (active).
With `Cc1ccc(-c2nc3ncccn3c2NC(=O)C2CC2)cc1` the EC50 [9] was > 112 µM (not active), the EC50 [10] was > 112 µM (not active) and the AC50 [6] was “inconclusive”. The AC50 [7] was 15.8 µM (inconclusive).
For `Cc1ccccc1N1C(=O)NC(=O)/C(=C\c2cc(C)n(C)c2C)C1=O`, the EC50 [11] was > 300 µM (not active) and the EC50 [12] was > 300 µM (not active).
With `O=C(OCCc1ccccc1)c1cc(O)c(O)c(O)c1` the EC50 [11] was > 300 µM (not active), the EC50 [12] was 29.6 µM (active) and the IC50 [5] was > 100 µM (active).
For `CC(=O)NS(=O)(=O)c1ccc(/N=c2\ssc3c2-c2cc(C)ccc2NC3(C)C)cc1`, the IC50 [5] was > 100 µM (active).
In the case of `CCOC(=O)C(OC(=O)c1sc(=S)n(C)c1C)C(C)=O` (stereo not given), the EC50 [9] is reported as > 112 µM (not active) and the EC50 [10] is reported as > 112 µM (not active).
In the case of `Cc1ccccc1N1C(=O)NC(=O)/C(=C/Nc2ccc(N(C)C)cc2)C1=O`, the IC50 [5] is reported as 6.73 µM (active), the AC50 ([6]; read-out: AC50) is reported as 22.4 µM (inconclusive) and the AC50 [13] is reported as 0.398 µM (inconclusive).
In the case of `COc1ccc(C(=O)COC(=O)c2cc(O)nc3ccccc23)c(OC)c1`, the EC50 [1] is reported as 8.87 µM (active), the EC50 [2] is reported as 54 µM (active) and the EC50 [3] is reported as 20.7 µM (active).
With `Cc1sc(N/N=C/C=C/c2ccccc2)nc1-c1ccccc1` the EC50 [14] was 2.67 µM (active), the EC50 [15] was 13.8 µM (active) and the AC50 [7] was 3.55 µM (inconclusive). The AC50 [8] was “inconclusive”.
In the case of `c1ccc2[nH]c(-c3ccc4c(c3)OCO4)nc2c1`, the EC50 [9] is reported as 1.16 µM (active) and the EC50 [10] is reported as 6.52 µM (active).
With `CC1OC(Oc2c(-c3cc(O)c(O)c(O)c3)oc3cc(O)cc(O)c3c2=O)C(O)C(O)C1O` (stereo not given) the EC50 [11] was 18 µM (active) and the EC50 [12] was 17.2 µM (active).
For `O=C(NC1CC1)C1Nc2ccc(OC(F)(F)F)cc2C2C=CCC12` (stereo not given), the EC50 [11] was > 300 µM (not active) and the EC50 [12] was > 300 µM (not active).
With `N#C/C(=C/c1cn(-c2ccccc2)nc1-c1cccc(OCc2ccccc2)c1)C(=O)NCCCn1ccnc1` the EC50 [14] was 1.44 µM (active), the EC50 [16] was 23.8 µM (active) and the EC50 [15] was > 30 µM (not active). The EC50 [17] was 22 µM (active), the AC50 [18] was 5.32 µM (active) and the IC50 [4] was > 20 µM (inactive).
In the case of `Cc1ccc(-c2nnc(CCC(=O)NCC3C4CC5CC(C4)CC3C5)o2)s1` (stereo not given), the EC50 [1] is reported as 11.6 µM (active), the EC50 [2] is reported as 17.6 µM (active) and the EC50 [3] is reported as 20.2 µM (active).
With `CCC1CCCCN1CCCNC(=O)Cn1c2ccccc2c2nc(=O)cc(C)n21` (stereo not given) the EC50 [1] was > 120 µM (not active), the EC50 [2] was > 120 µM (not active) and the EC50 [3] was > 120 µM (not active).
In the case of `COc1cc(C2C(C#N)=C(N)OC3=C2C(=O)CC(C)(C)C3)ccc1OCCN1CCOCC1` (stereo not given), the EC50 [11] is reported as > 300 µM (not active) and the EC50 [12] is reported as > 300 µM (not active).
For `COc1ccccc1OCCN1C(=O)S/C(=C\c2ccco2)C1=O`, the AC50 [8] was “inconclusive”.
